Assay results as given in ChEMBL document CHEMBL4043095, “Cyclic MOG35-55 ameliorates clinical and neuropathological features of experimental autoimmune encephalomyelitis” (2017).
Activity calls are given as the source filed them. No cut-off for these calls is given here. Residues, ends and D or L forms follow the SMILES beside them.

Key:
[1] = target: HLA-DRB2 protein (Homo sapiens) (UniProt Q30155); assay: Inhibition of AMCA-labeled MBP (83 to 99) binding to HLA-DR2b […] in human HTC-Lan B cells at 10 fold excess after 48 hrs by fluorescence spectrophotometric method; assay type: cell-based
HLA-DRB2 protein (Homo sapiens), sequence (Q30155 as listed by the source): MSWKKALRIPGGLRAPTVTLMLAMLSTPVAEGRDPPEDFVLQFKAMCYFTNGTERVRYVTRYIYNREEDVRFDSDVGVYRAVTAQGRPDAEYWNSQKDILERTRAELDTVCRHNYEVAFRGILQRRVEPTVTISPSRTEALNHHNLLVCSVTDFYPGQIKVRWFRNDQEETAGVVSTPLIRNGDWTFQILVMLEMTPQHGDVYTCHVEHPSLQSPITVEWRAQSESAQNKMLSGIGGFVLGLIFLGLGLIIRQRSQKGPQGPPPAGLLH

[2] = target: HLA-DRB2 protein (Homo sapiens) (UniProt Q30155); assay: Inhibition of AMCA-labeled MBP (83 to 99) binding to HLA-DR2b […] in human HTC-Lan B cells at 20 fold excess after 48 hrs by fluorescence spectrophotometric method; assay type: cell-based
Mus musculus [3] = assay: (§1) Antiinflammatory activity in C57BL/6 mouse EAE model subcutaneously immunized using 1:1 mixture of linear and cyclic MOG35 to 55 peptide in presence of complete Freunds adjuvant (CFA) followed by intraperitoneal pertussis toxin assessed as reduction in size of inflammatory foci measured 46 days post disease induction by Bielschowsky silver impregnation staining method combined with haematoxylin staining-based assay; assay type: functional
Mus musculus [4] = assay: (§2) Antiinflammatory activity in C57BL/6 mouse EAE model subcutaneously immunized using 1:1 mixture of linear and cyclic MOG35 to 55 peptide in presence of complete Freunds adjuvant (CFA) followed by intraperitoneal pertussis toxin assessed as axonal injury in spinal cord measured 16 days post disease induction (reference value: 15.2 to 42.4%); assay type: functional
Mus musculus [5] = assay: as §1, with “Luxol fast blue (LFB)” for “Bielschowsky silver impregnation”, “counterstained” for “method combined”, “Nuclear fast Red” for “haematoxylin”; assay type: functional
Mus musculus [6] = assay: as §1, with “demyelinating area” for “in size of inflammatory foci”, “Luxol fast blue (LFB)” for “Bielschowsky silver impregnation”, “counterstained” for “method combined”, “Nuclear fast Red” for “haematoxylin”; assay type: functional
Mus musculus [7] = assay: (§3) Antiinflammatory activity in C57BL/6 mouse EAE model subcutaneously immunized using 1:1 mixture of linear and cyclic MOG35 to 55 peptide in presence of complete Freunds adjuvant (CFA) followed by intraperitoneal pertussis toxin assessed as protection against axonal injury by measuring normal cell population in spinal cord measured 16 days post disease induction (reference value: 4.3%); assay type: functional
Mus musculus [8] = assay: as §1, with “16” for “46”, “Luxol fast blue (LFB)” for “Bielschowsky silver impregnation”, “counterstained” for “method combined”, “Nuclear fast Red” for “haematoxylin”; assay type: functional
Mus musculus [9] = assay: as §3, with “46” for “16”, “32%)” for “4.3%)”; assay type: functional
Mus musculus [10] = assay: as §1, with “demyelinating area” for “in size of inflammatory foci”, “16” for “46”, “Luxol fast blue (LFB)” for “Bielschowsky silver impregnation”, “counterstained” for “method combined”, “Nuclear fast Red” for “haematoxylin”; assay type: functional
Mus musculus [11] = assay: (§4) Immunomodulatory activity in C57BL/6 mouse subcutaneously immunized using 1:1 mixture of linear and cyclic MOG35 to 55 peptide in presence of complete Freunds adjuvant (CFA) followed by intraperitoneal pertussis toxin assessed as reduction in overall disease burden measured 46 days post disease induction; assay type: functional
Mus musculus [12] = assay: as §4, with “16” for “46”; assay type: functional
Mus musculus [13] = assay: as §2, with “loss” for “injury”, “46” for “16”, “4.7” for “15.2”, “26%)” for “42.4%)”; assay type: functional
Mus musculus [14] = assay: as §2, with “46” for “16”, “0.7” for “15.2”, “36%)” for “42.4%)”; assay type: functional
Mus musculus [15] = assay: as §1, with “demyelinating area” for “in size of inflammatory foci”; assay type: functional
Mus musculus [16] = assay: as §1, with “demyelinating area” for “in size of inflammatory foci”, “16” for “46”; assay type: functional
Mus musculus [17] = assay: as §3, with “loss” for “injury”, “46” for “16”, “27.3%)” for “4.3%)”; assay type: functional
Mus musculus [18] = assay: as §1, with “16” for “46”; assay type: functional
[19] = target: HLA-DRB2 protein (Homo sapiens) (UniProt Q30155); assay: Inhibition of AMCA-labeled MBP (83 to 99) binding to HLA-DR2b […] in human HTC-Lan B cells at 50 fold excess after 48 hrs by fluorescence spectrophotometric method; assay type: cell-based
Mus musculus [20] = assay: as §2, with “loss” for “injury”, “13” for “15.2”, “30.4%)” for “42.4%)”; assay type: functional
Mus musculus [21] = assay: as §3, with “loss” for “injury”; assay type: functional

`CC[C@H](C)[C@H](NC(=O)[C@H](CC(N)=O)NC(=O)[C@H](CCCCN)NC(=O)[C@H](Cc1ccccc1)NC(=O)[C@H](Cc1ccccc1)NC(=O)[C@H](Cc1cnc[nH]1)NC(=O)[C@@H](NC(=O)[C@@H](NC(=O)[C@@H]1CCCN1C(=O)[C@H](CC(N)=O)NC(=O)[C@@H](N)CCC(=O)O)C(C)C)C(C)C)C(=O)N[C@H](C(=O)N[C@H](C(=O)N1CCC[C@H]1C(=O)N[C@@H](CCCNC(=N)N)C(=O)N[C@H](C(=O)N1CCC[C@H]1C(=O)O)[C@@H](C)O)[C@@H](C)O)C(C)C` was tested. Which inhibition [1] did it give?
Its inhibition is “Active”.

With `CSCC[C@H](N)C(=O)N[C@@H](CCC(=O)O)C(=O)N[C@H](C(=O)NCC(=O)N[C@@H](Cc1c[nH]c2ccccc12)C(=O)N[C@@H](Cc1ccc(O)cc1)C(=O)N[C@@H](CCCNC(=N)N)C(=O)N[C@@H](CO)C(=O)N1CCC[C@H]1C(=O)N[C@@H](Cc1ccccc1)C(=O)N[C@@H](CO)C(=O)N[C@@H](CCCNC(=N)N)C(=O)N[C@H](C(=O)N[C@H](C(=O)N[C@@H](Cc1cnc[nH]1)C(=O)N[C@@H](CC(C)C)C(=O)N[C@@H](Cc1ccc(O)cc1)C(=O)N[C@@H](CCCNC(=N)N)C(=O)N[C@@H](CC(N)=O)C(=O)NCC(=O)N[C@@H](CCCCN)C(=O)O)C(C)C)C(C)C)C(C)C` (H-MEVGWYRSPFSRVVHLYRNGK-OH) as the compound, how does the inhibition [2] read?
Its inhibition is “Active”.

`CSCC[C@@H]1NC(=O)[C@H](CCCCN)NC(=O)CNC(=O)[C@H](CC(N)=O)NC(=O)[C@H](CCCNC(=N)N)NC(=O)[C@H](Cc2ccc(O)cc2)NC(=O)[C@H](CC(C)C)NC(=O)[C@H](Cc2cnc[nH]2)NC(=O)[C@H](C(C)C)NC(=O)[C@H](C(C)C)NC(=O)[C@H](CCCNC(=N)N)NC(=O)[C@H](CO)NC(=O)[C@H](Cc2ccccc2)NC(=O)[C@@H]2CCCN2C(=O)[C@H](CO)NC(=O)[C@H](CCCNC(=N)N)NC(=O)[C@H](Cc2ccc(O)cc2)NC(=O)[C@H](Cc2c[nH]c3ccccc23)NC(=O)CNC(=O)[C@H](C(C)C)NC(=O)[C@H](CCC(=O)O)NC1=O` (cyclo(EVGWYRSPFSRVVHLYRNGKM)) was tested. Which Activity (Mus musculus [3]) did it give?
The Activity was “Active”.

And the Activity (Mus musculus [4])?
Its Activity is 0.9 - 40.5%.

And the Activity (Mus musculus [5])?
The Activity was “Active”.

What about the Activity (Mus musculus [6]) of the same compound?
Its Activity is “Active”.

What about the Activity (Mus musculus [7]) of the same compound?
The Activity was 37.1%.

What about the Activity (Mus musculus [8]) of the same compound?
Its Activity is “Active”.

And the Activity (Mus musculus [9])?
The Activity was 48.3%.

What about the Activity (Mus musculus [10]) of the same compound?
The Activity was “Active”.

And the Activity (Mus musculus [11])?
Its Activity is “Active”.

And the Activity (Mus musculus [12])?
The Activity was “Active”.

What about the Activity (Mus musculus [13]) of the same compound?
The Activity was 2 - 27.2%.

And the Activity (Mus musculus [14])?
Its Activity is 0.7 - 26.5%.

What about the Activity (Mus musculus [15]) of the same compound?
Its Activity is “Active”.

And the Activity (Mus musculus [16])?
Its Activity is “Active”.

And the Activity (Mus musculus [17])?
The Activity was 45.6%.

And the Activity (Mus musculus [18])?
Its Activity is “Active”.

And the inhibition [19]?
The inhibition was “Active”.

And the Activity (Mus musculus [20])?
Its Activity is 1.7 - 27.6%.

What about the Activity (Mus musculus [21]) of the same compound?
Its Activity is 36.2%.
